# Data: US20190133964A1, “Polypeptide nano-bubbles and preparation method and application thereof” (NANJING MEDICAL UNIVERSITY, priority 2018, published 2019)
# Assays:
# [1] = tested on: mice fed with high-fat diet; experiment: Weight of mice fed with high-fat diet during drug administration; type: in vivo; settings: tail vein injection daily, 12 weeks after drug administration onward, FIG. 5
# Description: Experimental animals: male mice at the age of 6 weeks and feed were provided by the Experimental Animal Center of Nanjing Medical University, license number: SCXK (Su) 2011-0003. The animals are fed in different cages randomly, and drink water freely.
# Experimental drugs: normal diet control group (blank control group); and high-fat diet groups are divided into a normal saline group (model control group), a nano-bubble group, a nano-bubble-curcumin group, a polypeptide nano-bubble group (prepared by step 3) in embodiment 1), a curcumin group and a polypeptide nano-bubble-curcumin group (prepared by step 4) in embodiment 1). […]
# mice fed with high fat = experiment: Storage of visceral and subcutaneous adipose of mice fed with high fat; type: in vivo; settings: for Weight: body weight after 20 weeks
# Description: • 1) The obese mice fed with high fat are subjected to drug administration by intravenous injection for 20 weeks according to experimental steps in embodiment 2; • 2) the mice in the various groups are not fed with food for 12 hours, and are weighed accurately after being anaesthetized with 3% pentobarbital sodium at 45 mg/kg by intraperitoneal injection; • 3) the mice are conventionally sterilized and subjected to laparotomy, kidney surrounding adipose tissues, mesenterium surrounding adipose tissues, epididymis surrounding adipose tissues and abdominal subcutaneous adipose tissues are rapidly picked to weigh wet weight (wherein the range of the abdominal subcutaneous adipose tissues is as follows: the abdomen below an costal arch and above a groin, and a midaxillary line is taken as a boundary for two sides); • 4) the weight is calculated according to the following formula: wet weight of abdominal adipose; adipose pad total weight (g)=the kidney surrounding adipose tissues+the epididymis surrounding adipose tissues; and body adipose content=the adipose pad total weight (g)/body weight (g). • 5) The obtained data is subjected to statistical treatment.
# [2] = high-fat diet mice, 20 weeks, n = 10
# [3] = high-fat diet mice, tail vein injection 20 weeks, curcumin 75 mg/kg or nano-bubbles 40 μg/mice/time, n = 10, wet weight
structure (smiles),measurement,setting,value
"COc1cc(/C=C/C(=O)CC(=O)/C=C/c2ccc(O)c(OC)c2)ccc1O [Curcumin, curcumin]",Increasing of the weight of the mice compared with the model control group,[1],obviously inhibited
same,Wet weight of the visceral adipose tissues compared with the model control group,mice fed with high fat; Table 6,reduced obviously
same,Total weight of visceral adipose tissues,"mice fed with high fat; Table 6, high-fat diet mice, tail vein injection 20 weeks, n = 10",8.03 ± 0.02 g
same,Body fat mass index compared with the model control group,mice fed with high fat; Table 7,obviously reduced
same,Weight,"mice fed with high fat; Table 7, high-fat diet mice, n = 10",34.92 ± 0.96 g
same,Weight,"mice fed with high fat; Table 8, high-fat diet mice, n = 10",35.72 ± 0.75 g
same,VAT (total weight of visceral adipose tissues),"mice fed with high fat; Table 8, high-fat diet mice, 20 weeks, n = 10",7.24 ± 0.02 g
same,Body fat mass index,"mice fed with high fat; fat pad total weight (g)/weight (g), high-fat diet mice, 20 weeks, n = 10",6.38 ± 0.21 %
same,SCAT (subcutaneous adipose tissue total weight),mice fed with high fat; [2],3.01 ± 0.05 g
same,SCAT/weight,mice fed with high fat; [2],7.02 ± 0.38
same,VAT/SCAT,mice fed with high fat; [2],1.78 ± 0.09
same,Amount of visceral adipose tissues: Epididymis surrounding,mice fed with high fat; [3],1.21 ± 0.18 g
same,Amount of visceral adipose tissues: Kidney surrounding,mice fed with high fat; [3],0.72 ± 0.05 g
same,Amount of visceral adipose tissues: Omentum and mesenterium surrounding,mice fed with high fat; [3],0.59 ± 0.02 g
same,Fat pad total weight,"mice fed with high fat; kidney surrounding + epididymis surrounding adipose tissues, high-fat diet mice, 20 weeks, n = 10",2.34 ± 0.10 g
same,Weight of the subcutaneous adipose compared with the model group,mice fed with high fat; text on Table 8,remarkably reduced
